The source of these data is publication PMC3350427, “In vitro antiproliferative/cytotoxic activity on cancer cell lines of a cardanol and a cardol enriched from Thai Apis mellifera propolis” (BMC Complementary and Alternative Medicine, 2012).

Series [1] has as its system five human cancer cell lines (BT474, Chaco, Hep-G2, KATO-III, SW620). The experiment in a line: MTT assay, summary over the five cancer cell lines. The settings on record: 72 h exposure, read-out: IC50 values, range across the five cancer cell lines. Format: cell-based. The text has this:
(§1) The five selected cancer cell lines used in this research were derived from human duet carcinoma (BT474, ATCC No. HTB 20), undifferentiated lung (Chaco I, National Cancer Institute), liver hepatoblastoma (Hep-G2, ATCC No. HB8065), gastric carcinoma (KATO-III, ATCC No. HTB 103) and human colon adenocarcinoma (SW620, ATCC No. CCL 227) cancers. In addition, the non-transformed human foreskin fibroblast cell line (Hs27, ATCC No. CRL 1634) was used as a comparative control. All cell lines were obtained from the Institute of Biotechnology and Genetic Engineering, Chulalongkorn University. […]
(§2) The MTT assay was performed as reported by Santos et al. and Hernandez et al.. […] The supernatant was then removed, the cells permeabilized and the formazan crystals dissolved by aspiration in 150 μl of DMSO and 25 μl of 0.1 M glycine prior to measuring the absorbance at 540 nm by a microplate reader. […] By assuming an equal mitochondrial metabolic activity per living cell, the absorbance is then related to the relative number of viable cells and so is reduced, relative to the control, by any antiproliferation and/or cytotoxic activity of the test compound.
(§3) The absorbance at 540 nm of the test compound treated cancer cells and the solvent only control was used to calculate the relative number of viable cells, setting that for the control as 100%. […]

Series [2] concerns SW620 cells. Kind of series: DNA fragmentation (agarose-TBE gel), SW620. As to conditions: SW620, 72 h at IC50, agarose-TBE gel. Format: cell-based, human. On the procedure: (§4) The morphology of the SW620 or Hs27 cells treated with each test compound was compared to those treated with only the DMSO solvent as the control. Cells were released by standard trypsin and aspiration, centrifugally washed at 2,000 × g at 15-25°C for 5 min and finally the cell pellet was resuspended in 200 μl of PBS. To this 20 μl of proteinase K (> 600 mAU/ml) was added and total DNA was extracted using a QIAMP mini kit (Qiagen, cat. no. 51304), as per the manufacturer's instructions. […] After electrophoresis, the gel was stained with 10 μg/ml of ethidium bromide (EtBr) for 10 min, destained in distilled water for 20 min and the DNA visualized by ultraviolet transillumination.

Series [3] has as its system Hep-G2 cells (liver hepatoblastoma). Kind of series: MTT antiproliferative/cytotoxic assay, Hep-G2. Format: cell-based. As to conditions: Homo sapiens, HepG2, Hep-G2, 72 h exposure, read-out: IC50, in vitro antiproliferative/cytotoxic activity.
Excerpt: as §1, §2, §3

The subject of series [4] is Hs27 cells. Kind of series: Cell morphology in culture, Hs27. Format: cell-based, human. The settings on record: Hs27, up to 96 h, same doses as for SW620. As to the method: as §4
Series [5] concerns five cancer cell lines and the control Hs27 cell line. Kind of series: MTT assay, summary over the five cancer cell lines and Hs27. Format: cell-based. As to conditions: Homo sapiens, 72 h exposure, read-out: IC50 values, range across the five cancer cell lines and the control Hs27 cell line.
Excerpt: as §1, §2, §3

Series [6] relates to Hs27 cells. The experiment in a line: DNA fragmentation (agarose-TBE gel), Hs27. Format: cell-based, human. The settings on record: Hs27, 72 h. As to the method: as §4
The subject of series [7] is BT474 cells (duet carcinoma). Kind of series: MTT antiproliferative/cytotoxic assay, BT474. Format: cell-based, human. The settings on record: for IC50: Homo sapiens, BT-474, BT474, 72 h exposure, MTT, read-out: IC50, in vitro antiproliferative/cytotoxic activity.
Excerpt: (§5) The five selected cancer cell lines used in this research were derived from human duet carcinoma (BT474, ATCC No. HTB 20), undifferentiated lung (Chaco I, National Cancer Institute), liver hepatoblastoma (Hep-G2, ATCC No. HB8065), gastric carcinoma (KATO-III, ATCC No. HTB 103) and human colon adenocarcinoma (SW620, ATCC No. CCL 227) cancers. In addition, the non-transformed human foreskin fibroblast cell line (Hs27, ATCC No. CRL 1634) was used as a comparative control. All cell lines were obtained from the Institute of Biotechnology and Genetic Engineering, Chulalongkorn University. The five cancer cell lines were cultured in RPMI 1640 medium containing 5% (v/v) fetal calf serum (FCS), while the Hs27 cell line was cultured in Basal Iscove medium containing 5% (v/v) FCS, at 37°C with 5% (v/v) CO2 [28].
as §2
The absorbance at 540 nm of the test compound treated cancer cells and the solvent only control was used to calculate the relative number of viable cells, setting that for the control as 100%. The relative number of viable cells, as a % of the control, was then calculated as follows: […]
(§6) where (Abs of sample) and (Abs of control) are defined as the absorbance at 540 nm of the treated cells and the control cells, respectively.
The IC50 values were graphically obtained by plotting the absorbance obtained against the corresponding different concentrations of the test compound used, and are reported as the mean ± 1 standard error (SE). Data were statistically analyzed using the Kruskal-Wallis One Way Analysis of Variance. […]

Series [8] has as its system Chaco cells (undifferentiated lung cancer). The experiment in a line: MTT antiproliferative/cytotoxic assay, Chaco. Format: cell-based. The settings on record: Homo sapiens, 72 h exposure, read-out: IC50, in vitro antiproliferative/cytotoxic activity.
Excerpt: as §1, §2, §3

In series [9] the test system is SW620 cells. The experiment in a line: Cell morphology in culture, SW620. Format: cell-based, human. As to conditions: at IC50 ([…] / 3.0 μg/ml). As to the method:
as §4

For series [10], the system named is KATO-III cells (gastric carcinoma). Kind of series: MTT antiproliferative/cytotoxic assay, KATO-III. Format: cell-based. As to conditions: Homo sapiens, 72 h exposure, read-out: IC50, in vitro antiproliferative/cytotoxic activity.
Excerpt: as §1, §2, §3

Series [11] in a line: MTT antiproliferative/cytotoxic assay, non-transformed Hs27. Format: cell-based. The settings on record: human, Hs27 non-transformed foreskin fibroblast cells, read-out: IC50, in vitro antiproliferative/cytotoxic activity.
Excerpt: as §1, §2, §3

In series [12] the test system is SW620 cells (colon adenocarcinoma). The experiment in a line: MTT antiproliferative/cytotoxic assay, SW620. Format: cell-based, human. The settings on record: for IC50 / IC50, in vitro antiproliferative/cytotoxic activity: SW620, 72 h exposure, MTT; for IC50: read-out: IC50, in vitro antiproliferative/cytotoxic activity.
Excerpt: as §5
The MTT assay was performed as reported by Santos et al. and Hernandez et al.. For each of the five cancer cell lines, 5 × 10^3 cells in 200 μl of RPMI 1640 medium containing 5% (v/v) FCS were transferred per well of a 96 well tissue culture plate, and incubated at 37°C in 5% (v/v) CO2 for 24 h prior to the addition of 2 μl/well of the test extract in dimethylsulfoxide (DMSO) at various final concentrations. The addition of 2 μl/well of DMSO alone was used as the control. Cells were then incubated as above for 72 h before 10 μl of 5 mg/ml MTT was added and incubated for another 4 h. The supernatant was then removed, the cells permeabilized and the formazan crystals dissolved by aspiration in 150 μl of DMSO and 25 μl of 0.1 M glycine prior to measuring the absorbance at 540 nm by a microplate reader. Three replications of each trial were performed. By assuming an equal mitochondrial metabolic activity per living cell, the absorbance is then related to the relative number of viable cells and so is reduced, relative to the control, by any antiproliferation and/or cytotoxic activity of the test compound.
The absorbance at 540 nm of the test compound treated cancer cells and the solvent only control was used to calculate the relative number of viable cells, setting that for the control as 100%. The relative number of viable cells, as a % of the control, was then calculated as follows:
Therelative(% )numberofviablecells = (Absofsample)×100/(Absofcontrol)
as §6
The IC50 values were graphically obtained by plotting the absorbance obtained against the corresponding different concentrations of the test compound used, and are reported as the mean ± 1 standard error (SE). Data were statistically analyzed using the Kruskal-Wallis One Way Analysis of Variance. Significance was accepted at the P < 0.05 level.

Series [13] relates to human colorectal cancer cell line (CRC). Further details: method as in PMID 15996024. The settings on record: 72 h treatment, cited from earlier work.
The test system of a further series is B16-F10 melanoma cells. Further details: method as in PMID 20623613. The settings on record: cited from earlier work.
Another series relates to HeLa tumor cells. On the set-up: method as in PMID 19497755. As to conditions: cited from earlier work.
The mark [14] stands for this setting: mean ± 1 SE, ND in Table 4 = no IC50 obtained, no significant activity in tested concentration range.
The mark [15] stands for this setting: read-out: IC50, antiproliferative activity.

Values after ≈ are worked out from the molar mass of the structure shown. Values joined by “and” are separate entries in the source; they are usually repeats but may differ in a detail not shown here. Equal values may be shown once. Read-outs that look alike come from different tables or passages of the source. A value given as a limit tells only on which side of the number the result lay.

Take `CCCCCCCCCCCCCCCc1cc(O)cc(O)c1` [Compound 2]: the IC50 was 3.13 µg/mL to 6 µg/mL and 6.82 µM to 13.1 µM in series [1]; 5.97 ± 0.15 µg/mL in series [3] (setting [14]); 1.3 ± 0.33 µM in [3]; 3.13 µg/mL to 5.97 µg/mL and 6.82 µM to 13 µM in [5]; 4.41 ± 0.15 µg/mL in series [7] (setting [14]); 9.61 ± 0.33 µM in [7]. The IC50 in series [8] (setting [14]) stood at 5.78 ± 0.07 µg/mL; in series [8], 12.6 ± 0.15 µM; in [10] (setting [14]), 4.03 ± 0.13 µg/mL; in [10] it was 8.78 ± 0.28 µM; in series [12] (Homo sapiens, SW-620, 72 h, mean ± 1 SE, ND in Table 4 = no IC50 obtained, no significant activity in tested concentration range) it was 3 µg/mL; in series [12] (Homo sapiens, SW-620, 72 h), 6.54 µM. The results for the IC50 in series [12] (listed as compound 2) and in [12] were less than 6.8 µM and less than 6.81 µM, respectively. For the same molecule, the “evidence of fragmentation of the DNA” value in the series with SW620 cells [2] and in the series with Hs27 cells [6] was “neither as an apoptotic ladder nor a general degradation smear” throughout. The cell morphology result with Hs27 cells [4] is “no morphological changes were observed”; with SW620 cells [9] (SW620, 24 h), “No significant change in the cell morphology”; with SW620 cells [9] (SW620, 48 h), “vacuolation could be seen inside the cells”; in the series with SW620 cells [9] (SW620, 72 h) it was “apparent DNA condensation within the nucleus was visible”; with SW620 cells [9] (SW620, 96 h), “significantly higher levels of cells with DNA condensation within their nucleus”. For the same molecule, the IC50 at 72 h was 1.3 ± 0.33 µM in [11] (Hs27, 72 h exposure) and 5.97 ± 0.15 µg/mL in series [11] (Hs27 non-transformed control, 72 h exposure, mean ± 1 SE). Moreover, the “IC50, in vitro antiproliferative/cytotoxic activity” value in series [12] (setting [14]) is less than 3.125 µg/mL; in [12] (mean ± 1 SE, ND in Table 4 = no IC50 obtained, no significant activity in tested concentration range, listed as compound 2) it was less than 3.13 µg/mL. Further, the “fold lower IC50 on SW620 than IC50 of CAPE on CRC” value in [12] (in terms of molarity) is given as “over 3.3 fold”.

As for `O=C(/C=C/c1ccc(O)c(O)c1)OCCc1ccccc1` [CAPE, caffeic acid phenethyl ester], the “fold higher IC50 of CAPE than compound 2 (cardol) on BT474” value in series [7] (in terms of molarity, CAPE on MDA-231/MCF-7) is approximately 1.5 fold. Further, in [13] (setting [15]), the IC50 is 22.7 µM. Also, the “IC50, antiproliferative activity” value in [13] was 6.47 µg/mL (≈ 22.8 µM).

In the case of `CCCCCCCCCCCCCCCc1cc(O)cc(O)c1` [cardol (C15:0)], in the series with B16-F10 melanoma cells, the “IC50, cytotoxicity” value was 8.352 µg/mL (≈ 26.1 µM); the complete lethality concentration is 40 μM and 13.92 μg/ml. In addition, the IC50 in the series on B16-F10 melanoma cells (read-out: IC50, cytotoxicity) is 24 µM.

For `CC(C)=CC[C@H]1C[C@@]2(CC=C(C)C)C(=O)[C@](C(=O)c3ccccc3)(C(=O)C3=C2O[C@H](C(C)(C)O)C3)C1(C)C` [hyperibone A], the “IC50, antiproliferative activity” value in the series with HeLa tumor cells was 0.091 µg/mL (≈ 0.175 µM). In addition, in the series on HeLa tumor cells (setting [15]), the IC50 was 0.176 µM.
